Assay results from patent US12427192B2, “Water soluble adjuvant and composition containing same” (Sumitomo Pharma Co., Ltd., priority 2019, dated 2025).

Assays:
[1] = test system: HLA-A*02:01 transgenic mouse; assay: Test 4: in vivo adjuvant activity, cocktail vaccine a, IFNγ ELISPOT
Procedure: Evaluation of in vivo adjuvant activity in HLA-A*02:01 transgenic mouse
The in vivo adjuvant activity of the compound of Example 1 and the compound of Reference example 12 was evaluated in the following procedure. To a cocktail vaccine comprising Compound of formula 4 prepared in Reference example 8 and Peptide SEQ ID No. 3 prepared in Reference example 3 with a preliminarily-emulsified composition (hereinafter, referred to as “cocktail vaccine a”) was added the compound prepared in Example 1 or the compound prepared in Reference example 12 respectively to prepare each vaccine. The vaccine was administered to a HLA-A*02:01 transgenic mouse, and the adjuvant activity of each vaccine was evaluated by the method of testing antigen-specific CTL induction.
The RMFPNAPYL (SEQ ID No. 1) in Compound of formula 4 and the VLDFAPPGA (SEQ ID No. 4) in Peptide SEQ ID No. 3 correspond to antigen peptides derived from an HLA-A*02:01-restricted WT1 protein.
HLA-A*02:01 transgenic mouse (C57BL/6CrHLA-A2.1DR1) lacks mouse MHC, and instead expresses a chimeric HLA of a human MHC (HLA-A*02:01) and a mouse MHC (H-2D^b), and HLA-DRB1*01:01. […]
The character for inducing CTLs specific to the antigen peptide (SEQ ID No. 1 or SEQ ID No. 4) by cocktail vaccine a was evaluated by measuring whether IFNγ can be produced upon stimulation of splenocytes from the mouse with the corresponding peptide. […]

[2] = test system: HLA-A*02:01 transgenic mouse; assay: Test 16: in vivo adjuvant activity, cocktail vaccine k (liposome formulation 1), IFNγ ELISPOT; details: added to cocktail vaccine k (liposome formulation 1); 0.4 nmol per body, twice; FIG. 19
Procedure: Evaluation of In Vivo Adjuvant Activity in HLA-A*02:01 Transgenic Mouse
The in vivo adjuvant activity of the compound of Example 1 was evaluated in the following procedure. To a vaccine (liposome formulation 1) comprising Compound of formula 4 prepared in Reference example 8 and Peptide SEQ ID No. 3 prepared in Reference example 3 (hereinafter, referred to as “cocktail vaccine k”) was added the compound prepared in Example 1 to prepare a vaccine. The vaccine was administered to a HLA-A*02:01 transgenic mouse, and the adjuvant activity of the vaccine was evaluated by the method of testing antigen-specific CTL induction.
For example, the above liposome formulation 1 was prepared as follows. 47.1 mg of hydrogenated soybean phosphatidylcholine and 15.47 mg of cholesterol were dissolved in t-butyl alcohol, and the mixture was lyophilized. […]
Cocktail vaccine k was injected to mice intradermally at the tail base area in an amount for administering 500 μg of Compound of formula 4 per body and 375 μg of Peptide SEQ ID No. 3 per body. […] Then, after removal of the supernatant from the wells, stained spots on the ELISPOT plate were counted.

Structure (SMILES): CCCCCNc1nc(N)nc(C)c1Cc1ccc(CN(C)CCOCCOCCOCCOCCO)cc1OC [Example 1, 1-(4-{[2-amino-4-methyl-6-(pentylamino)pyrimidin-5-yl]methyl}-3-methoxyphenyl)-2-methyl-5,8,11,14-tetraoxa-2-azahexadecan-16-ol·trifluoroacetate]
- CTL counts responsive to Peptide of SEQ ID No. 1 or SEQ ID No. 4 compared with Reference example 12 ([1]; added to cocktail vaccine a, 32.5 ng Example 1 vs 22.5 ng Reference example 12 per body): more
- induced CTL count on adding the compound to the vaccine ([1]; cocktail vaccine a, 32.5 ng Example 1 per body): increases
- CTL counts responsive to Peptide SEQ ID No. 1 compared with adding no compound [2]: more
